Data: patent publication US20230365541A1, “INHIBITOR OF ENHANCER OF ZESTE HOMOLOGUE 2, AND USE THEREOF” (HAISCO PHARMACEUTICALS PTE. LTD., priority 2020, published 2023)

How the values were obtained:
SU-DHL-6 cells = assay: SU-DHL-6 cell proliferation test; type: cell-based, human; details: incubated for 14 days
Description: SU-DHL-6 cells are human B-cell lymphoma cell lines purchased from ATCC and cultured under the following conditions: RPMI-1640+10% FBS+1% double antibody in a 37° C., 5% CO2 incubator. The cells were plated in a 12-well plate, with a cell concentration of 1×10^5 cells/mL. After the cells were plated, the compounds at different concentrations were added and cultured in a 37° C., 5% CO2 incubator. The cells were counted every 3-4 days (Countstar automated cell counter), centrifuged to remove the supernatant, re-diluted to 1×10^5 cells/mL and plated, and then the compounds at different concentrations were further added. After the mixture was incubated for 14 days and the cells were counted, the test was terminated, and the IC50 values were calculated by using the Origen9.2 software.

EZH2 = EZH2 (Homo sapiens (Human), UniProt Q15910); assay: Test method for EZH2 enzyme activity; type: biochemical; details: H3K27(21-44) and [3H]-SAM
Chain of EZH2 (Q15910 other isoform, or with tags, fused parts or gaps isoform Q15910-2): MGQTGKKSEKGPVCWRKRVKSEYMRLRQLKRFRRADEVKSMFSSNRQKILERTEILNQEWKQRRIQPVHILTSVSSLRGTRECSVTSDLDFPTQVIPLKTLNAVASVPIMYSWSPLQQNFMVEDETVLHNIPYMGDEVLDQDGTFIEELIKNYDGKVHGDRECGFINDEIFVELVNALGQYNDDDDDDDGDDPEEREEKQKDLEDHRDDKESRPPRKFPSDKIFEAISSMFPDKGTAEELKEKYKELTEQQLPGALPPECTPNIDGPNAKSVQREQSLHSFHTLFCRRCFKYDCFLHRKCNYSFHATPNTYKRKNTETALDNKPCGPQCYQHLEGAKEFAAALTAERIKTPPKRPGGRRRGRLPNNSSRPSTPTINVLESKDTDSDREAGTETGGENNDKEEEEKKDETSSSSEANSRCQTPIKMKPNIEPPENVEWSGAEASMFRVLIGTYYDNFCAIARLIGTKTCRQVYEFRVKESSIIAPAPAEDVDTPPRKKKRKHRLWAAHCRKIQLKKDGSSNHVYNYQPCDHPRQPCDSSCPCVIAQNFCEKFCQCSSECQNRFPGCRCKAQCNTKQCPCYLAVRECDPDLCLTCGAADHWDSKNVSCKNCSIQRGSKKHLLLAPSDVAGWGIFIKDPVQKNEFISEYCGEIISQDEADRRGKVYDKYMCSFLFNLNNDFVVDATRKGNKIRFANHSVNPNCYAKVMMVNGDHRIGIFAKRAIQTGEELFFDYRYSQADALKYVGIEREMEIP
Chain of EZH2 (O75530 2-441 partner): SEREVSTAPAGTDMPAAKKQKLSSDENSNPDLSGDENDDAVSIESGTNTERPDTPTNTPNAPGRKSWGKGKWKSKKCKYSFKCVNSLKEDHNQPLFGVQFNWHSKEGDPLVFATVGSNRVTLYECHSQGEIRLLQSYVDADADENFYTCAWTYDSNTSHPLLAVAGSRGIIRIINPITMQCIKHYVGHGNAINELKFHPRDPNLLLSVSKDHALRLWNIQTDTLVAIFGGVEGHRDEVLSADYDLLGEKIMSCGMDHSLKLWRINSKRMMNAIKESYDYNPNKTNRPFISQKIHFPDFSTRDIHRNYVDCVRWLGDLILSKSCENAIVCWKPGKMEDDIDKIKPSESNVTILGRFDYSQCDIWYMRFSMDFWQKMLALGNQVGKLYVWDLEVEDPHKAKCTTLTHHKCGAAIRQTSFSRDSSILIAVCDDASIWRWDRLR
Chain of EZH2 (Q15022 2-739 partner): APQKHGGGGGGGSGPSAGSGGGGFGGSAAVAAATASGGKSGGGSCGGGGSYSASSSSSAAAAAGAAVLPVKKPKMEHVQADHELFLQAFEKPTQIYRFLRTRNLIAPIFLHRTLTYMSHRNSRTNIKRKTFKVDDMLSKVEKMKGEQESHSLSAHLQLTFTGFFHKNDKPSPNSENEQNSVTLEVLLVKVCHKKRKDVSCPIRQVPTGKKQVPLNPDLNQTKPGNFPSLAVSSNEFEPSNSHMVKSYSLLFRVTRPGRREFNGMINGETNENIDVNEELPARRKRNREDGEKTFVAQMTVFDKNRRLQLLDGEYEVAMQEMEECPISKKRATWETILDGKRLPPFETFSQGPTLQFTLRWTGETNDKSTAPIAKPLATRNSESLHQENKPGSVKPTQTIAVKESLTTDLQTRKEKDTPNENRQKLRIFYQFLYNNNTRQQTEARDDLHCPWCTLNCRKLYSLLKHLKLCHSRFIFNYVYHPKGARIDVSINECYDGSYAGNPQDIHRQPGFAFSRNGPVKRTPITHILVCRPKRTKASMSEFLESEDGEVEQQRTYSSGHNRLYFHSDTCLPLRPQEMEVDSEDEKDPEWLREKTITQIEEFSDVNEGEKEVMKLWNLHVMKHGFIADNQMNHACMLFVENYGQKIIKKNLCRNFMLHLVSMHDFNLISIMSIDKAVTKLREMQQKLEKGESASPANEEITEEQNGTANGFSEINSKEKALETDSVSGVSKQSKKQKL
Chain of EZH2 (Q09028 2-425 partner): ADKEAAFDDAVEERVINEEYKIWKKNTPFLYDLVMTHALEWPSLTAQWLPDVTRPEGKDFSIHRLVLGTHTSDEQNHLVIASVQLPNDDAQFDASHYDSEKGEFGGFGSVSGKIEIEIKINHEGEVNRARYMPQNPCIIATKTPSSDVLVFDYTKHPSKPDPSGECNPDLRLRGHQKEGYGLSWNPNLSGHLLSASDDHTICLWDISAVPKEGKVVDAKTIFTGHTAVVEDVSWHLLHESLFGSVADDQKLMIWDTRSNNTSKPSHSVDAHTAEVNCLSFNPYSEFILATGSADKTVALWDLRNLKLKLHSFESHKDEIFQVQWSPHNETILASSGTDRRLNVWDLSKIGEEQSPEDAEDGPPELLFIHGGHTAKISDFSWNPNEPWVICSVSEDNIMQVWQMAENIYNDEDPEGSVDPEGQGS
Chain of EZH2 (Q6ZN18 whole entry partner): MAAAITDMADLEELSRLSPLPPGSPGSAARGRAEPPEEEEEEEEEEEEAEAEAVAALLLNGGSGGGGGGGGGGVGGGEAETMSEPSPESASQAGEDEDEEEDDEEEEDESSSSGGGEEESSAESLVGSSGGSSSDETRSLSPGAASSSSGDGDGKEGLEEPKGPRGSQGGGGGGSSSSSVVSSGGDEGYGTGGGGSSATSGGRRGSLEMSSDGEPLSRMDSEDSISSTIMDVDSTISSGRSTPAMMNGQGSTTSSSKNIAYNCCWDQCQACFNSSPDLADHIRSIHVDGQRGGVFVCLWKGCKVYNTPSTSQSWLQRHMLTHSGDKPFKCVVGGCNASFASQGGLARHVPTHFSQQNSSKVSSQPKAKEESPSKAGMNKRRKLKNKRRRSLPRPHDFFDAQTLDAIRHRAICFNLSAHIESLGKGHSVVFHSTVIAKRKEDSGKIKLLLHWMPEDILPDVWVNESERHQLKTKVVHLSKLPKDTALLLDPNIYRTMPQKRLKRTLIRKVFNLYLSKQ
Outline: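 EZH2 (3 nM final) preincubated 15 min with compound in Tris-HCl pH 9.0 buffer, then H3K27(21-44) peptide and [3H]-SAM added (mixture at 200 nM and 100 nM) for 60 min at room temperature. Reaction quenched with cold SAM; flashplate scintillation read, inhibition normalized to controls and IC50 fitted.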

SMILES | IC50 (SU-DHL-6 cells; Homo sapiens, SU-DHL-6, 336 h) [nM] | IC50 (EZH2) [nM] | IC50 (SU-DHL-6 cells) [nM] | IC50 (SU-DHL-6 cells; Homo sapiens, 336 h) [nM]
CSc1cc(C)[nH]c(=O)c1CNC(=O)c1cc(Cl)c2c(c1C)OC(C)(C1CCN(CC3COC3)CC1)O2 (stereo not drawn) [Compound 38, 7-chloro-2,4-dimethyl-N-((6-methyl-4-(methylthio)-2-oxo-1,2-dihydropyridin-3-yl)methyl)-2-(1-(oxetan-3-ylmethyl)piperidin-4-yl)benzo[d][1,3]dioxole-5-carboxamide] | 14.1 | 0.7 |  | 
CSc1cc(C)[nH]c(=O)c1CNC(=O)c1cc(Cl)c2c(c1C)OC(C)(C1CCC(N3CC(N(C)C)C3)CC1)O2 (single isomer, unassigned) [Compound 1, isomer 1, 7-chloro-2-(4-(3-(dimethylamino)azetidin-1-yl)cyclohexyl)-2,4-dimethyl-N-((6-methyl-4-(methylthio)-2-oxo-1,2-dihydropyridin-3-yl)methyl)benzo[d][1,3]dioxole-5-carboxamide] | 13.1 | 0.67 |  | 
CSc1cc(C)[nH]c(=O)c1CNC(=O)c1cc(Cl)c2c(c1C)OC(C)([C@H]1CC[C@@H](c3ccccn3)CC1)O2 (single isomer, unassigned) [Compound 39, isomer 2, 7-chloro-2,4-dimethyl-N-((6-methyl-4-(methylthio)-2-oxo-1,2-dihydropyridin-3-yl)methyl)-2-(4-(pyridin-2-yl)cyclohexyl)benzo[d][1,3]dioxole-5-carboxamide] |  | 0.58 | 63.2 | 
CSc1cc(C)[nH]c(=O)c1CNC(=O)c1cc(Cl)c2c(c1C)OC(C)([C@H]1CC[C@@H](N3CC(N4CCCC4)C3)CC1)O2 (single isomer, unassigned) [Compound 43, isomer 1, 7-chloro-2,4-dimethyl-N-((6-methyl-4-(methylthio)-2-oxo-1,2-dihydropyridin-3-yl)methyl)-2-(4-(3-(pyrrolidin-1-yl)azetidin-1-yl)cyclohexyl)benzo[d][1,3]dioxole-5-carboxamide] |  | 0.49 |  | 59.3
CSc1cc(C)[nH]c(=O)c1CNC(=O)c1cc(Cl)c2c(c1C)OC(C)(C1CCN(CC3CCC3)CC1)O2 (stereo not drawn) [Compound 37, 7-chloro-2-(1-(cyclobutylmethyl)piperidin-4-yl)-2,4-dimethyl-N-((6-methyl-4-(methylthio)-2-oxo-1,2-dihydropyridin-3-yl)methyl)benzo[d][1,3]dioxole-5-carboxamide] | 32.1 | 0.44 |  | 
CNS(=O)(=O)N1CCC(C2(C)Oc3c(Cl)cc(C(=O)NCc4c(SC)cc(C)[nH]c4=O)c(C)c3O2)CC1 (stereo not drawn) [Compound 26, 7-chloro-2,4-dimethyl-N-((6-methyl-4-(methylthio)-2-oxo-1,2-dihydropyridin-3-yl)methyl)-2-(1-(N-methylsulfamoyl)piperidin-4-yl)benzo[d][1,3]dioxole-5-carboxamide] | 63.2 | 0.52 |  | 
CSc1cc(C)[nH]c(=O)c1CNC(=O)c1cc(Cl)c2c(c1C)OC(C)([C@H]1CC[C@@H](c3ccccn3)CC1)O2 (single isomer, unassigned) [Compound 39, isomer 1, 7-chloro-2,4-dimethyl-N-((6-methyl-4-(methylthio)-2-oxo-1,2-dihydropyridin-3-yl)methyl)-2-(4-(pyridin-2-yl)cyclohexyl)benzo[d][1,3]dioxole-5-carboxamide] |  | 0.42 | 28.2 | 
COC(=O)N1CCC(C2(C)Oc3c(Cl)cc(C(=O)NCc4c(SC)cc(C)[nH]c4=O)c(C)c3O2)CC1 (stereo not drawn) [Compound 29, methyl-4-(7-chloro-2,4-dimethyl-5-(((6-methyl-4-(methylthio)-2-oxo-1,2-dihydropyridin-3-yl)methyl)carbamoyl)benzo[d][1,3]dioxol-2-yl)piperidine-1-carboxylate] | 77.9 | 0.44 |  | 
[2H]C([2H])(NC(=O)c1cc(Cl)c2c(c1C)OC(C)(C1CCC(NC3COC3)CC1)O2)c1c(SC)cc(C)[nH]c1=O (single isomer, unassigned) [Compound 59, isomer 1, 7-chloro-2,4-dimethyl-N-((6-methyl-4-(methylthio)-2-oxo-1,2-dihydropyridin-3-yl)methyl-d2)-2-(4-(oxetan-3-ylamino)cyclohexyl)benzo[d][1,3]dioxole-5-carboxamide] | 10 | 0.57 |  | 
CSc1cc(C)[nH]c(=O)c1CNC(=O)c1cc(Cl)c2c(c1C)OC(C)([C@H]1CC[C@@H](NC3CC(F)(F)C3)CC1)O2 (single isomer, unassigned) [Compound 4, isomer 2, 7-chloro-2-(4-((3,3-difluorocyclobutyl)amino)cyclohexyl)-2,4-dimethyl-N-((6-methyl-4-(methylthio)-2-oxo-1,2-dihydropyridin-3-yl)methyl)benzo[d][1,3]dioxole-5-carboxamide] |  | 0.56 | 9.79 | 
CSc1cc(C)[nH]c(=O)c1CNC(=O)c1cc(Cl)c2c(c1C)OC(C)([C@H]1CC[C@@H](NC3CC(F)(F)C3)CC1)O2 (single isomer, unassigned) [Compound 4, isomer 1, 7-chloro-2-(4-((3,3-difluorocyclobutyl)amino)cyclohexyl)-2,4-dimethyl-N-((6-methyl-4-(methylthio)-2-oxo-1,2-dihydropyridin-3-yl)methyl)benzo[d][1,3]dioxole-5-carboxamide] | 10.2 | 0.46 |  | 
CSc1cc(C)[nH]c(=O)c1CNC(=O)c1cc(Cl)c2c(c1C)OC(C)([C@H]1CC[C@H](C(=O)N3CC(F)(F)C3)CC1)O2 (single isomer, unassigned; isomer 1) [Compound 47, isomer 1, 7-chloro-2-(4-(3,3-difluoroazetidine-1-carbonyl)cyclohexyl)-2,4-dimethyl-N-(di-deuterated(6-methyl-4-(methylthio)-2-oxo-1,2-dihydropyridin-3-yl)di-deuterated-methyl)benzo[d][1,3]dioxole-5-carboxamide] |  | 0.34 | 26.3 | 
CSc1cc(C)[nH]c(=O)c1CNC(=O)c1cc(Cl)c2c(c1C)OC(C)(C1CCN(CC3(C#N)CC3)CC1)O2 (stereo not drawn) [Compound 30, 7-chloro-2-(1-((1-cyanocyclopropyl)methyl)piperidin-4-yl)-2,4-dimethyl-N-((6-methyl-4-(methylthio)-2-oxo-1,2-dihydropyridin-3-yl)methyl)benzo[d][1,3]dioxole-5-carboxamide] | 22.6 | 0.66 |  | 
[2H]C([2H])(NC(=O)c1cc(Cl)c2c(c1C)OC(C)([C@H]1CC[C@@H](N3CC4COCC4C3)CC1)O2)c1c(SC)cc(C)[nH]c1=O (single isomer, unassigned) [Compound 60, isomer 2, 7-chloro-2,4-dimethyl-N-((6-methyl-4-(methylthio)-2-oxo-1,2-dihydropyridin-3-yl)methyl-d2)-2-(4-(tetrahydro-1H-furo[3,4-c]pyrrol-5(3H)-yl)cyclohexyl)benzo[d][1,3]dioxole-5-carboxamide] |  | 0.34 | 7.12 | 
CNC(=O)N1CC2CCC(C1)C2[C@]1(C)Oc2c(Cl)cc(C(=O)NCc3c(SC)cc(C)[nH]c3=O)c(C)c2O1 (mixture of isomers) [Compound 36, 8-(7-chloro-2,4-dimethyl-5-(((6-methyl-4-(methylthio)-2-oxo-1,2-dihydropyridin-3-yl)methyl)carbamoyl)benzo[d][1,3]dioxol-2-yl)-N-methyl-3-azabicyclo[3.2.1]octane-3-carboxamide] | 8.96 | 0.55 |  | 
